Test results published in the supplement of paper PMC10307832.

Assays:
Test in all cases: relative viability (nuclei count vs DMSO), 5 days (fraction); higher = more cells survive
NCI-H322M = test system: NCI-H322M
In short: (§1)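 Lung cancer cell lines, seeded in 1536-well plates, were treated the following day by pin tool with a single drug or with five library-drug doses (not always all listed) in √10 steps on top of a fixed anchor-drug dose. Cells were fixed and nuclei stained in one step after 5 days, and nuclei were counted. Relative viability is the nuclei count for treated wells divided by that for vehicle wells, reported as medians of duplicate plates.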

LK-2 = test system: LK-2
In short: as §1

NCI-H1975 = test system: NCI-H1975
In short: as §1

EMC-BAC-2 = test system: EMC-BAC-2
In short: as §1

NCI-H1944 = test system: NCI-H1944
In short: as §1

RERF-LC-KJ = test system: RERF-LC-KJ
In short: as §1

NCI-H3122 = test system: NCI-H3122
In short: as §1

NCI-H460 = test system: NCI-H460
In short: as §1

NCI-H647 = test system: NCI-H647
In short: as §1

NCI-H1355 = test system: NCI-H1355
In short: as §1

PC-14 = test system: PC-14
In short: as §1

C=C1C(=O)O[C@@H](CCCCCCCC)[C@@H]1C(=O)O [C-75] + NC(=O)Nc1cc(-c2cccc(F)c2)sc1C(=O)N[C@H]1CCCNC1 [AZD7762] (partner 0.2 µM)
relative viability (NCI-H322M; first compound 0.08 µM): 0.587
relative viability (NCI-H322M; first compound 0.253 µM): 0.684
relative viability (NCI-H322M; first compound 0.8 µM): 0.552
relative viability (NCI-H322M; first compound 8 µM): 0.587
relative viability (LK-2; first compound 0.08 µM): 0.355
relative viability (LK-2; first compound 0.253 µM): 0.699
relative viability (LK-2; first compound 0.8 µM): 0.299
relative viability (LK-2; first compound 2.53 µM): 0.289
relative viability (LK-2; first compound 8 µM): 0.255
relative viability (NCI-H1975; first compound 0.08 µM): 0.771
relative viability (NCI-H1975; first compound 0.253 µM): 0.556
relative viability (NCI-H1975; first compound 0.8 µM): 0.623
relative viability (NCI-H1975; first compound 2.53 µM): 0.667
relative viability (NCI-H1975; first compound 8 µM): 0.78
relative viability (EMC-BAC-2; first compound 0.08 µM): 1.1
relative viability (EMC-BAC-2; first compound 0.253 µM): 1.04
relative viability (EMC-BAC-2; first compound 0.8 µM): 1.06
relative viability (EMC-BAC-2; first compound 2.53 µM): 0.887
relative viability (EMC-BAC-2; first compound 8 µM): 1.07
relative viability (NCI-H1944; first compound 0.08 µM): 0.566
relative viability (NCI-H1944; first compound 0.253 µM): 0.648
relative viability (NCI-H1944; first compound 0.8 µM): 0.381
relative viability (NCI-H1944; first compound 2.53 µM): 0.621
relative viability (NCI-H1944; first compound 8 µM): 0.517
relative viability (RERF-LC-KJ; first compound 0.08 µM): 0.946
relative viability (RERF-LC-KJ; first compound 0.253 µM): 1.16
relative viability (RERF-LC-KJ; first compound 0.8 µM): 0.824
relative viability (RERF-LC-KJ; first compound 2.53 µM): 0.925
relative viability (RERF-LC-KJ; first compound 8 µM): 1.09
relative viability (NCI-H3122; first compound 0.08 µM): 1.03
relative viability (NCI-H3122; first compound 0.253 µM): 1.09
relative viability (NCI-H3122; first compound 0.8 µM): 0.951
relative viability (NCI-H3122; first compound 2.53 µM): 0.883
relative viability (NCI-H3122; first compound 8 µM): 1.03
relative viability (NCI-H460; first compound 0.08 µM): 0.685
relative viability (NCI-H460; first compound 0.253 µM): 0.805
relative viability (NCI-H460; first compound 0.8 µM): 0.595
relative viability (NCI-H460; first compound 2.53 µM): 0.555
relative viability (NCI-H460; first compound 8 µM): 0.706
relative viability (NCI-H647; first compound 0.08 µM): 0.412
relative viability (NCI-H647; first compound 0.253 µM): 0.405
relative viability (NCI-H647; first compound 0.8 µM): 0.329
relative viability (NCI-H647; first compound 2.53 µM): 0.444
relative viability (NCI-H647; first compound 8 µM): 0.373
relative viability (NCI-H1355; first compound 0.08 µM): 0.742
relative viability (NCI-H1355; first compound 0.253 µM): 0.831
relative viability (NCI-H1355; first compound 0.8 µM): 0.738
relative viability (NCI-H1355; first compound 2.53 µM): 0.663
relative viability (NCI-H1355; first compound 8 µM): 0.764
relative viability (PC-14; first compound 0.08 µM): 0.358
relative viability (PC-14; first compound 0.8 µM): 0.243
relative viability (PC-14; first compound 2.53 µM): 0.328
relative viability (PC-14; first compound 8 µM): 0.319
